Structures are written as SMILES. Where only a bound is given, the exact number is not on record here.

A short description of series [1]: Oral bioavailability in rat at 1 mg/kg administered as cassette dose. Type of series: ADME, organism-based. Particulars: in vivo.
The next series addresses Mu-type opioid receptor (Homo sapiens, UniProt P35372). Kind of series: Displacement of [3H]-DAMGO from recombinant human mu-opioid receptor expressed in CHOK1 cells. The series is classed as cell-based. For orientation: Displacement assays read how much labelled ligand stays bound in the presence of the test substance.
Series [2] in a line: Chemical stability of the compound. Type of series: physicochemical.
The target in series [3] is Delta-type opioid receptor (Homo sapiens, UniProt P41143). Kind of series: Displacement of [3H]-DADLE from recombinant human delta-opioid receptor expressed in HEK293 cells. Type of series: cell-based.
Sequence of Delta-type opioid receptor (P41143 whole entry): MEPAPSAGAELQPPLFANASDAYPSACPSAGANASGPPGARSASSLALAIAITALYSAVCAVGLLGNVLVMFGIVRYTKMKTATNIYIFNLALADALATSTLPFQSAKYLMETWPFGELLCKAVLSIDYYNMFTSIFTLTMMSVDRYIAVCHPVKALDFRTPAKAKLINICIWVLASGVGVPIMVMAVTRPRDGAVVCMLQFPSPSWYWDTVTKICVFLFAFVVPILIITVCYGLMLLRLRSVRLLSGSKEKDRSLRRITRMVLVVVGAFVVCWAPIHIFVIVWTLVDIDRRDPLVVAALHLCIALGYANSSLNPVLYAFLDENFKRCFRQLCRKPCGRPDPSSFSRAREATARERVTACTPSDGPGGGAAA
Series [4] in a line: Cmax in rat brain at 1 mg/kg, po administered as cassette dose. Type of series: ADME, organism-based. Also noted: dose 1 mg/kg, route oral.
A short description of series [5]: Total clearance in rat at 1 mg/kg, po administered as cassette dose. The series is classed as ADME, organism-based. The following applies: in vivo.
Series [6] is described as follows: Brain to blood partition coefficient, Kp of the compound in rat at 1 mg/kg, po administered as cassette dose. The series is classed as ADME, organism-based.
A short description of series [7]: Stability in rat microsomes assessed as parent compound remaining at 0.5 uM measured after 0.5 hrs. The series is classed as ADME, Microsome. The following applies: read-out: Stability.
Series [8] is described as follows: Stability in plasma (unknown origin) assessed as parent compound remaining after 24 hrs. The following applies: read-out: Stability. Type of series: ADME, cell-free.
A short description of series [9]: Stability in human microsomes assessed as parent compound remaining at 0.5 uM measured after 0.5 hrs. The series is classed as ADME, Microsome. Particulars: read-out: Stability.

Sequence of Mu-type opioid receptor (P35372 whole entry): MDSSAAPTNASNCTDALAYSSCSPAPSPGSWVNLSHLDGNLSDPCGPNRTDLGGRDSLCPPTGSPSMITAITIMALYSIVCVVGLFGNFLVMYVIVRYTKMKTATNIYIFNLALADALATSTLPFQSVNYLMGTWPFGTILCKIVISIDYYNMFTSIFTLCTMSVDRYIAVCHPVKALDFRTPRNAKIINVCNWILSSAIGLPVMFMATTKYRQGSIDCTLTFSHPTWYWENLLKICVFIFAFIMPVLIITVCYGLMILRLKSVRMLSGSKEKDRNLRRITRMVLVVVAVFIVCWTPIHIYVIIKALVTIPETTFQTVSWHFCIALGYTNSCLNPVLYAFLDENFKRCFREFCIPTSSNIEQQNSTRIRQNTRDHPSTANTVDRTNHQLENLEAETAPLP

Usually bioavailability stands for dose-corrected exposure relative to a reference, in per cent. Read a high bioavailability as much systemic uptake. Broadly, the Ki is a dissociation constant, usually derived from enzyme kinetics or from competition with a known ligand. As a reminder, the Cmax is the highest concentration seen after dosing. Usually CL/F stands for clearance divided by bioavailability, as obtained after extravascular dosing. Broadly, the Kp is tissue or fluid exposure divided by exposure in the circulation. `O=C(Nc1ccc2cc[nH]c2c1)C1=C(O)[C@@H]2Oc3c(O)ccc4c3[C@@]23CCN(CC2CC2)[C@H](C4)[C@]3(O)C1` came in with a bioavailability in [1] of 13%. Also, the Ki on Mu-type opioid receptor is 2.4 nM; in [3] it was 18.9 nM. Also, the Stability result in series [2] is “Stable”. Moreover, in series [4], the Cmax is 0.56 ng/mL. For the same compound, in [5], the CL/F came to 28 mL/min/kg. The Kp in series [6] was 0.04. Moreover, the values for the remaining at 0.5 h, 0.5 µM in series [7] and in series [9] were 86% and 93%, respectively. Also, in series [8], the remaining at 24 h is over 80%.
Consider `CC(C)(NC(=O)C1=C(O)[C@@H]2Oc3c(O)ccc4c3[C@@]23CCN(CC2CC2)[C@H](C4)[C@]3(O)C1)C(=O)O`, for which the bioavailability in series [1] stood at 0.52%. Further, the Ki at Mu-type opioid receptor was 46.1 nM; in [3] it was 11.8 nM. Further, the Stability result in series [2] is given as “Stable”. Further, the highest level in series [4] (Cmax) was 0.055 ng/mL. Besides, the CL/F in series [5] turned out to be 28 mL/min/kg. Besides, in series [6], the Kp amounted to 0.04. For the same compound, the remaining at 24 h in series [8] is over 80%.
On to `Cc1nc(N)nc2c1C[C@@]1(O)[C@H]3Cc4ccc(O)c5c4[C@@]1(CCN3CC1CC1)[C@H]2O5`, for which, in series [1], the bioavailability was found to be 42.5%. The Ki stood at 8.6 nM on Mu-type opioid receptor and 2.1 nM in [3]. In series [4], this compound showed a Cmax of 4.6 ng/mL. The compound further came in with a CL/F in series [5] of 220 mL/min/kg. Further, in series [6], the Kp was found to be 0.31. For the same compound, the results for the remaining at 0.5 h, 0.5 µM in series [7] and in series [9] were 58% and 92%, respectively.
In turn, `O=C(C1=C(O)[C@@H]2Oc3c(O)ccc4c3[C@@]23CCN(CC2CC2)[C@H](C4)[C@]3(O)C1)N1CCCC1` showed a bioavailability in [1] of 18%. Further, the Ki at Mu-type opioid receptor came out at 4 nM; in series [3], 7.4 nM. The Stability entry in series [2] is listed as “Stable”. This compound displayed a Cmax in series [4] of 3 ng/mL. Moreover, the CL/F in [5] turned out to be 102 mL/min/kg. In [6], this compound gave a Kp of 0.22. Besides, the values for the remaining at 0.5 h, 0.5 µM in [7] and in [9] were 24% and 99%, respectively. Further, in series [8], the remaining at 24 h was over 80%.
`C[C@H](CO)NC(=O)C1=C(O)[C@@H]2Oc3c(O)ccc4c3[C@@]23CCN(CC2CC2)[C@H](C4)[C@]3(O)C1` registered a bioavailability in series [1] of 3.4%. Besides, the Ki stood at 19.4 nM at Mu-type opioid receptor and 18 nM in [3]. Besides, the Stability entry in series [2] is “Stable”. For the same compound, in [4], the Cmax stood at 0.21 ng/mL. The compound further registered a CL/F in series [5] of 27 mL/min/kg. The compound further displayed a Kp in [6] of 0.05. The remaining at 24 h in series [8] was over 80%.
As to `O=C(O)c1ccc2c3c([nH]c2c1)[C@@H]1Oc2c(O)ccc4c2[C@@]12CCN(CC1CC1)[C@H](C4)[C@]2(O)C3`, the bioavailability in [1] stood at 0.1%. The results for the Ki (at Mu-type opioid receptor; in [3]) were 18 nM and 0.62 nM, respectively. Further, in [4], the concentration peaked (Cmax) at 0.023 ng/mL. The CL/F in [5] was 71.8 mL/min/kg. This compound had a Kp in [6] of 0.03. In addition, the remaining at 0.5 h, 0.5 µM came to 97% in series [7] and 98% in series [9].
`O=C(O)c1ccc2c3c([nH]c2c1Cl)[C@@H]1Oc2c(O)ccc4c2[C@@]12CCN(CC1CC1)[C@H](C4)[C@]2(O)C3` yielded a bioavailability in series [1] of 0.2%. Moreover, the Ki turned out to be 19 nM on Mu-type opioid receptor and 1 nM in [3]. Besides, the Cmax in series [4] is 0.032 ng/mL. In series [5], the CL/F was found to be 18.1 mL/min/kg. This compound also yielded a Kp in [6] of 0.03. For the same compound, the remaining at 0.5 h, 0.5 µM was 100% in [7] and 97% in [9].
Turning to `Cc1n[nH]c2c1C[C@@]1(O)[C@H]3Cc4ccc(O)c5c4[C@@]1(CCN3CC1CC1)[C@H]2O5`, the bioavailability in series [1] was found to be 26.9%. Further, the results for the Ki (on Mu-type opioid receptor; in series [3]) were 24 nM and 1.2 nM, respectively. The peak concentration (Cmax) in series [4] is 2.2 ng/mL. The CL/F in [5] amounted to 199 mL/min/kg. Also, the Kp in [6] stood at 0.25. Moreover, the values for the remaining at 0.5 h, 0.5 µM in series [7] and in series [9] were 81% and 98%, respectively.

The values above are taken from ChEMBL document CHEMBL4308867, “Discovery of naldemedine: A potent and orally available opioid receptor antagonist for treatment of opioid-induced adverse effects” (Bioorg Med Chem Lett, 2019).
